The values below come from PubChem BioAssay (NCI).

Each structure is given as a SMILES string.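 In this assay, cells in 96-well plates receive the compound at five concentrations for 48 hours. Endpoints are linearly interpolated between the surrounding concentrations. The concentration for full growth arrest is given as TGI.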 *1 amine or outer side, *2 acyl side, *3 side chain or, on linkers, in order; H or OH if unused. Where a SMILES comes first, the peptide text is derived from it. [ ]: non-standard residue; d: D form. The star is where a group is joined. X31 = CC(=O)N(C)SCC(N[*:1])C(=O)[*:2]; X47 = CC(=O)N(C)SCC(N*)/C(O)=N\O; Cbz = O=C(OCc1ccccc1)*; Bn = c1ccc(C*)cc1; For = O=C*

Test in all cases: NCI-60 cell line screen, 48 h
The subject of assay [1] is ACHN renal.
Assay [2] deals with HCT-116 colon.
The subject of assay [3] is HCT-15 colon.
Assay [4] has as its system HOP-92 NSCLC.
Assay [5] relates to NCI-H460 lung.
For assay [6], the system named is OVCAR-3 ovarian.
Assay [7] has as its system OVCAR-4 ovarian.
Assay [8] deals with OVCAR-5 ovarian.
In assay [9] the test system is OVCAR-8 ovarian.
Assay [10] deals with RPMI-8226 leukemia.
Assay [11] concerns RXF 393 renal.
For assay [12], the system named is SF-539 CNS.
For assay [13], the system named is SK-MEL-2 melanoma.
The test system of assay [14] is SK-MEL-28 melanoma.
Assay [15] has as its system SR leukemia.
For assay [16], the system named is T-47D breast.
In assay [17] the test system is U251 CNS.
The test system of assay [18] is UACC-257 melanoma.
Assay [19] concerns UACC-62 melanoma.
The subject of assay [20] is CAKI-1 renal.

In the case of `COC(=O)CCc1cc(OC)c(O)c(C(Cc2ccc(OC)c(OC)c2)C(=O)OC)c1` (centres undefined), the TGI in [1], in assay [2], in assay [3], in assay [4], in [5] and in [6] was over 100 µM in each case. The TGI in assay [7], in [8], in assay [9], in assay [10], in assay [11] and in [12] was over 100 µM each time. The TGI in assay [13], in assay [14], in [15], in assay [16], in assay [17] and in assay [18] was over 100 µM throughout. The TGI in [19] was over 100 µM.

As for `COc1cc(C=O)ccc1Oc1nnnn1-c1ccccc1`, the TGI is 85.3 µM in [20]; over 100 µM in assay [2]; over 100 µM in assay [3]; over 100 µM in assay [4]; over 100 µM in assay [5]; over 100 µM in [6]. For the same molecule, the TGI in assay [7] is over 100 µM; in assay [8], over 100 µM; in [9], over 100 µM; in assay [10], 98.2 µM; in [11] it was over 100 µM; in [13], over 100 µM. For the same molecule, the TGI is over 100 µM in assay [14]; 51.1 µM in [15]; 58 µM in [16]; over 100 µM in [17]; over 100 µM in assay [18].

Turning to `COC(=O)c1c2c(cc3c1CC1(Cc4cc5c(c(C=O)c4C1)CCCC5)C3)CCCC2` (centres undefined), the TGI is over 100 µM in assay [1]; 47.3 µM in assay [2]; over 100 µM in assay [3]; over 100 µM in [4]; over 100 µM in assay [6]; over 100 µM in [7]. For the same molecule, the TGI was over 100 µM in [8]; over 100 µM in assay [9]; over 100 µM in assay [10]; over 100 µM in assay [11]; over 100 µM in assay [12]; 85.1 µM in assay [13]. The TGI in [15], in assay [16], in assay [17], in assay [18] and in [19] was over 100 µM each time.

`O=c1c2cc(-c3ccccc3)sc2nc2n1N=C(c1ccccc1)CS2`: the TGI is 32.5 µM in assay [1]; 34.3 µM in assay [20]; over 100 µM in assay [2]; over 100 µM in assay [3]; 34.6 µM in assay [4]; over 100 µM in assay [5]. In addition, the TGI in [6] is 49.1 µM; in assay [7] it was 61.4 µM; in [8], over 100 µM; in assay [9], over 100 µM; in [10], over 100 µM; in assay [12], 89.1 µM. In addition, the TGI in assay [14] was over 100 µM; in assay [15], over 100 µM; in assay [16], over 100 µM; in [17], 48.4 µM; in [18] it was 91.5 µM; in assay [19], 31.7 µM.

Consider `CC(=O)ON(C(C)=O)c1ccc(-c2nc3ccccc3s2)cc1`, for which the TGI was 50.4 µM in assay [1]; over 54.7 µM in assay [2]; over 68.4 µM in [3]; over 81.6 µM in assay [4]; over 100 µM in [5]; 66.7 µM in assay [6]. Also, the TGI is over 100 µM in assay [7]; 98.6 µM in [8]; over 58 µM in assay [9]; 55.4 µM in assay [10]; over 79.3 µM in assay [11]; 29.4 µM in [12]. The TGI in [13] is 67.1 µM; in assay [14], over 70.8 µM; in assay [15] it was over 100 µM; in [16], over 66.5 µM; in assay [17], over 60.9 µM; in assay [18], over 83.5 µM. The molecule also displayed a TGI in assay [19] of 48.7 µM.

Take `CC(=O)N(C)SCC(NC(=O)C(Cc1ccccc1)NC(=O)OCc1ccccc1)C(=O)NC(Cc1ccccc1)C(=O)NC(Cc1cn(C=O)c2ccccc12)C(=O)NC(CCCCNC(=O)OCc1ccccc1)C(=O)NC(C(=O)NC(CSN(C)C(C)=O)/C(O)=N\O)C(C)OCc1ccccc1` (centres undefined) (Cbz-F[X31]FW(For)K(Cbz)T(Bn)-X47; configuration not given here): the TGI in [1], in assay [2], in assay [3], in assay [4], in assay [5] and in assay [6] was over 100 µM throughout. The TGI in assay [7], in [8], in assay [9], in [10], in [11] and in assay [12] was over 100 µM each time. For the same molecule, the TGI in [13], in assay [14], in assay [15], in [16], in assay [17] and in assay [18] was over 100 µM each time. The TGI in assay [19] was over 100 µM.

Regarding `CCCCCC(C)(C)CCC(=O)OC1OC(COC2OC(COC3OC(CO)C(O)C(O)C3O)C(O)C(O)C2O)C(O)C(O)C1O` (centres undefined), the TGI in assay [1], in [2], in assay [3], in assay [4], in [5] and in assay [6] was over 100 µM in each case. Further, the TGI in assay [8], in assay [9], in [10], in assay [11], in [12] and in [13] was over 100 µM throughout. The TGI in assay [15], in assay [16], in [17], in assay [18] and in assay [19] was over 100 µM throughout.

With `CCC1=NC(N/N=C/c2ccco2)=N/C1=C\c1ccccc1O`, the TGI in assay [1] is over 100 µM; in assay [20], over 100 µM; in assay [2], 56.8 µM; in [3] it was 42.7 µM; in assay [4] it was over 100 µM; in assay [5], 73.6 µM. Moreover, the TGI in [7] was 27.8 µM; in assay [8] it was over 100 µM; in assay [9] it was over 100 µM; in assay [10], over 100 µM; in assay [11] it was over 100 µM; in [13], 89.4 µM. For the same molecule, the TGI in assay [14] is over 100 µM; in assay [15] it was over 100 µM; in [16] it was over 100 µM; in assay [17], over 100 µM; in assay [18] it was over 100 µM; in assay [19], 53.6 µM.

With `C=CCn1c(=O)c2ccccc2[n+]2c(C)c(C(=O)OCC)sc12`, the TGI in assay [1], in assay [20], in [2], in [3], in assay [5] and in assay [6] was over 100 µM throughout. Also, the TGI in [7], in [8], in assay [9], in [10], in assay [11] and in [12] was over 100 µM throughout. Moreover, the TGI in assay [13], in assay [14], in assay [15], in assay [16], in assay [17] and in [18] was over 100 µM each time. The same molecule registered a TGI in assay [19] of over 100 µM.

On to `C/C=C/[C@H]1O[C@@](O)([C@@H](C)[C@H](O)[C@H](C)[C@H]2OC(=O)/C(OC)=C/C(C)=C/[C@@H](C)[C@@H](O)[C@@H](CC)[C@@H](O)[C@H](C)C/C(C)=C/C=C/[C@@H]2OC)C[C@H](OC2CC(O)C(O)C(C)O2)[C@@H]1C` (some centres undefined), for which the TGI in [1] turned out to be 12.8 µM; in assay [20], 11.9 µM; in assay [2] it was 4.15 µM; in assay [3], 8.8 µM; in [4], 3.69 µM; in [5], 4.81 µM. Further, the TGI in assay [6] was 6.27 µM; in assay [7] it was 32 µM; in [8], 15.1 µM; in assay [9], 12 µM; in [10], under 0.0075 µM; in assay [11] it was 23.2 µM. Moreover, the TGI in assay [14] was 14.7 µM; in assay [15], 0.75 µM; in [16], 0.336 µM; in [17], 11.4 µM; in assay [18] it was under 0.0075 µM; in assay [19] it was 10.3 µM.

Turning to `CC(=O)Nc1ccc(Nc2cc(=O)[nH]c(=O)[nH]2)cc1`, the TGI in assay [1], in [2], in [3], in assay [4], in [5] and in assay [6] was over 100 µM in each case. In addition, the TGI in assay [7], in assay [8], in [9], in assay [10], in assay [11] and in assay [12] was over 100 µM each time. The TGI in assay [14], in assay [15], in assay [16], in assay [17] and in assay [18] was over 100 µM throughout.

For the molecule `O=P1(O)C=CC2(CCCC2)O1`, the TGI in [1], in assay [2], in [3], in assay [4], in assay [5] and in assay [6] was over 100 µM each time. Besides, the TGI in assay [7], in assay [8], in assay [9], in assay [12], in assay [13] and in [14] was over 100 µM in each case. Moreover, the TGI in assay [15], in assay [16], in assay [17], in assay [18] and in [19] was over 100 µM throughout.

On to `Cc1c(NC(=S)NN)c(=O)n(-c2ccccc2)n1C`, for which the TGI in assay [20], in assay [2], in assay [3], in assay [5], in [6] and in assay [7] was over 100 µM each time. For the same molecule, the TGI in assay [8], in [9], in [10], in [11], in assay [12] and in [13] was over 100 µM throughout. Moreover, the TGI in assay [14], in assay [15], in assay [16], in [17], in assay [18] and in [19] was over 100 µM throughout.

For the molecule `CCOC(=O)c1c2c3c(cccc3[nH]c1=O)Sc1ncccc1-2`, the TGI in assay [1] was over 100 µM; in [20], 70.7 µM; in assay [2] it was over 100 µM; in assay [3] it was over 100 µM; in assay [5], over 100 µM; in assay [6], over 100 µM. Also, the TGI in assay [7] was over 100 µM; in assay [8], 96.6 µM; in [9] it was over 100 µM; in assay [10] it was 38.4 µM; in [11], 94.9 µM; in assay [12], over 100 µM. The TGI in assay [13] is over 100 µM; in assay [14] it was over 100 µM; in [15] it was over 100 µM; in [16], over 100 µM; in assay [17] it was 67.3 µM; in assay [18] it was over 100 µM. Moreover, the TGI in [19] came out at 35.2 µM.

Consider `O=C(Nn1c(-c2ccccc2)nc2ccccc2c1=O)c1ccc(CS)cc1`, for which the TGI in assay [1], in assay [2], in assay [4], in assay [5], in assay [6] and in assay [7] was over 100 µM in each case. Also, the TGI in assay [8] is over 100 µM; in [9] it was over 100 µM; in [10], over 100 µM; in [11], over 100 µM; in [12], 67.7 µM; in assay [14], over 100 µM. For the same molecule, the TGI in assay [15], in assay [16], in [17], in assay [18] and in assay [19] was over 100 µM in each case.
